Assay results as given in US9890147B2 (BAYER PHARMA AKTIENGESELLSCHAFT, priority 2012, dated 2018).

What was measured:
BRD4 (BD1) = biological target: T1, BRD4 (BD1) (Homo sapiens, UniProt O60885); test: Binding assay BRD4/acetylated peptide H4 (TR-FRET protein-protein interaction assay)
T1 construct: with relatively long constructs also being possible, preferably amino acids 44-168; made in house; host or cells: E. coli
Text: Binding Assay BRD4/Acetylated Peptide H4 (“PRO”)
To assess the BRD4 binding of the substances described in the present application, their ability to inhibit the interaction between BRD4 (BD1) and acetylated histone H4 in a dose-dependent manner was quantified (Filippakopoulos et al., Cell, 2012, 149: 214-231).
For this purpose, use was made of a time-resolved fluorescence resonance energy transfer (TR-FRET) assay which measured binding between N-terminally His6-tagged BRD4 (BD1) (amino acids 67-152, with relatively long constructs also being possible, preferably amino acids 44-168) and a synthetic acetylated histone H4 (Ac—H4) peptide having the sequence GRGK(Ac)GGK(Ac)GLGK(Ac)GGAK(Ac)RHGSGSK-biotin. The recombinant BRD4 protein-produced according to Filippakopoulos et al., Cell, 2012, 149: 214-231—was expressed in E. coli and purified by (Ni-NTA) affinity and (Sephadex G-75) size exclusion chromatography. The Ac—H4 peptide is commercially available, for example from Biosyntan (Berlin, Germany). In a typical assay, 11 different concentrations of each substance (0.1 nM, 0.33 nM, 1.1 nM, 3.8 nM, 13 nM, 44 nM, 0.15 μM, 0.51 μM, 1.7 μM, 5.9 μM and 20 μM) were measured in duplicate on the same microtitre plate. To this end, 100-fold concentrated solutions in DMSO were prepared by serial dilution (1:3.4) of a 2 mM stock solution in a clear 384-well microtitre platte (Greiner Bio-One, Frickenhausen, Germany) 50 nl of these were transferred into a black test plate (Greiner Bio-One, Frickenhausen, Germany). The test was started by addition of 2 μl of a 2.5-fold concentrated BRD4 solution (final concentration usually 10 nM in the […] of the reaction volume) in aqueous assay buffer [50 mM HEPES pH 7.5. 50 mM sodium chloride (NaCl), 0.25 mM CHAPS and 0.05% serum albumin (BSA)] to the substances in the test plate. This was followed by a 10-minute incubation step at 22° C. to pre-equilibrate putative complexes between BRD4 and the substances.
The mixture was then incubated in the dark for one hour at 22° C. and then for at least 3 hours and at most overnight at 4° C. Formation of BRD4/Ac—H4 complexes was determined by measuring the resonance energy transfer from the streptavidin-Eu cryptate to the anti-6His-XL665 antibody in the reaction. To this end, the fluorescence emission was measured at 620 nm and 665 nm after excitation at 330-350 nm in a TR-FRET measuring device, for example a Rubystar or Pherastar (both from BMG Lab Technologies, Offenburg, Germany) or a Viewlux (Perkin-Elmer). The ratio of the emission at 665 nm and at […] was used as an indicator for the amount of BRD4/Ac—H4 complexes formed.
The data obtained (ratios) were normalized, with 0% inhibition corresponding to the mean of the measured values of a set of controls (usually 32 data points) comprising all reagents. Here, 50 nl of DMSO (100%) were used instead of test substances. An inhibition of 100% corresponded to the mean of the measured values of a set of controls (usually 32 data points) comprising all reagents except for BRD4. The IC50 was determined by regression analysis based on a 4-parameter equation (minimum, maximum, IC50, Hill; Y=Max+(Min−Max)/(1+(X/IC 50)^Hill)).

MOLM-13 cells = test: Cell proliferation assay (alamarBlue), MOLM-13; format: cell-based; details: Homo sapiens, 96 hours incubation, inhibition of cell proliferation
Experimental: In accordance with the invention, the capability of the substances to inhibit cell proliferation was determined Cell viability was determined using the alamarBlue® reagent (Invitrogen) in a Victor X3 Multilabel Reader (Perkin Elmer). The excitation wavelength was 530 nm and the emission wavelenth […].
The MOLM-13 cells (DSMZ, ACC 554) were sown at a concentration of 4000 cells/well in 100 μl growth medium (RPMI1640, 10% FCS) on 96-well microtitre plates.
After an overnight incubation at 37° C., the fluorescence values (CI values) were determined. The plates were then treated with various substance dilutions (1E-5 M, 3E-6 M, 1E-6M, 3E-7 M, 1E-7 M, 3E-8 M, 1E-8 M) and incubated at 37° C. for 72 (MV4-11-, LOX-IMVI cells), 96 (MOLM-13-, B16F10-, MDA-MB-431-, Caov-3 cells), 120 (MOLP-8-, KMS-12-PE cells) or 168 (LAPC-4 cells) hours. The fluorescence values (CO values) were then determined. For the data analysis, the CI values were subtracted from the CO values and the results were compared between cells treated with different dilutions of the substance or with buffer solution only. These were used to calculate the IC 50 values (substance concentration required for 50% inhibition of cell proliferation).

Structure (SMILES): CNC(=O)N1N=C(c2cccc(-c3c(C)noc3C)c2)c2cc(OC)c(OC)cc2CC1C (racemic) [Example 31, (±)-1-[3-(3,5-Dimethylisoxazol-4-yl)phenyl]-7,8-dimethoxy-N,4-dimethyl-4,5-dihydro-3H-2,3-benzodiazepine-3-carboxamide]
- IC50 (BRD4 (BD1)): 180 nM
- IC50 (MOLM-13 cells): 270 nM

Structure (SMILES): CNC(=O)N1N=C(c2ccc(Cl)cc2)c2cc(OCCN3CCOCC3)ccc2CC1C (racemic) [Example 32, (±)-1-(4-Chlorophenyl)-N,4-dimethyl-8-[2-(morpholin-4-yl)ethoxy]-4,5-dihydro-3H-2,3-benzodiazepine-3-carboxamide]
- IC50 (BRD4 (BD1)): 380 nM
- IC50 (MOLM-13 cells): 1180 nM

Structure (SMILES): CNC(=O)N1N=C(c2ccc(N3CCOC3=O)cc2)c2cc(OC)c(OC)cc2CC1C (racemic) [Example 34, (±)-7,8-Dimethoxy-N,4-dimethyl-1-[4-(2-oxooxazolidin-3-yl)phenyl]-4,5-dihydro-3H-2,3-benzodiazepine-3-carboxamide]
- IC50 (BRD4 (BD1)): 50 nM
- IC50 (MOLM-13 cells): 350 nM

Structure (SMILES): CNC(=O)N1N=C(c2ccc(N3CCCCC3=O)cc2)c2cc(OC)c(OC)cc2CC1C (racemic) [Example 35, (±)-7,8-dimethoxy-N,4-dimethyl-1-[4-(2-oxopiperidin-1-yl)phenyl]-4,5-dihydro-3H-2,3-benzodiazepine-3-carboxamide]
- IC50 (BRD4 (BD1)): 220 nM
- IC50 (MOLM-13 cells): 1470 nM

Structure (SMILES): CNC(=O)N1N=C(c2ccc(N3CCN(Cc4ccccc4)CC3=O)cc2)c2cc(OC)c(OC)cc2CC1C (racemic) [Example 36, (±)-1-[4-(4-benzyl-2-oxopiperazin-1-yl)phenyl]-7,8-dimethoxy-N,4-dimethyl-4,5-dihydro-3H-2,3-benzodiazepine-3-carboxamide]
- IC50 (BRD4 (BD1)): 260 nM
- IC50 (MOLM-13 cells): 1160 nM

Structure (SMILES): CNC(=O)N1N=C(c2ccc(N3CCCN(C)CC3=O)cc2)c2cc(OC)c(OC)cc2CC1C (racemic) [Example 37, (±)-7,8-dimethoxy-N,4-dimethyl-1-[4-(4-methyl-2-oxo-1,4-diazepan-1-yl)phenyl]-4,5-dihydro-3H-2,3-benzodiazepine-3-carboxamide]
- IC50 (BRD4 (BD1)): 120 nM
- IC50 (MOLM-13 cells): 1130 nM

Structure (SMILES): CNC(=O)N1N=C(c2ccc(Cl)cc2)c2cc(OCCCN3CCN(C)CC3)ccc2C[C@H]1C [Example 164.1, (4R)-1-(4-chlorophenyl)-N,4-dimethyl-8-[3-(4-methylpiperazin-1-yl)propoxy]-4,5-dihydro-3H-2,3-benzodiazepine-3-carboxamide]
- IC50 (BRD4 (BD1)): > 20000 nM

Structure (SMILES): CNC(=O)N1N=C(c2ccc(N3CCC(OC)CC3)cc2)c2cc(OC)c(OC)cc2C[C@H]1C [Example 179.1, (4R)-7,8-dimethoxy-1-[4-(4-methoxypiperidin-1-yl)phenyl]-N,4-dimethyl-4,5-dihydro-3H-2,3-benzodiazepine-3-carboxamide]
- IC50 (BRD4 (BD1)): 3770 nM

Structure (SMILES): CNC(=O)N1N=C(c2ccc(N3CC(C)(O)C3)cc2)c2cc(OC)c(OC)cc2C[C@H]1C [Example 185.1, (4R)-1-[4-(3-hydroxy-3-methylazetidin-1-yl)phenyl]-7,8-dimethoxy-N,4-dimethyl-4,5-dihydro-3H-2,3-benzodiazepine-3-carboxamide]
- IC50 (BRD4 (BD1)): 1490 nM

Structure (SMILES): CNC(=O)C1CCN(c2ccc(C3=NN(C(=O)NC)[C@H](C)Cc4cc(OC)c(OC)cc43)cc2)CC1 [Example 189.2, (4R)-7,8-dimethoxy-N,4-dimethyl-1-{4-[4-(methylcarbamoyl)piperidin-1-yl]phenyl}-4,5-dihydro-3H-2,3-benzodiazepine-3-carboxamide]
- IC50 (BRD4 (BD1)): 17400 nM

Structure (SMILES): CNC(=O)N1N=C(c2ccc(N3CC[C@H](O)C3)cc2)c2cc(OC)c(OC)cc2C[C@@H]1C [Example 190.1, (4S)-1-{4-[(3S)-3-hydroxypyrrolidin-1-yl]phenyl}-7,8-dimethoxy-N,4-dimethyl-4,5-dihydro-3H-2,3-benzodiazepine-3-carboxamide]
- IC50 (BRD4 (BD1)): 30 nM

Structure (SMILES): CNC(=O)N1N=C(c2ccc(N3CCNC(=O)C3)cc2)c2cc(OC)c(OC)cc2C[C@@H]1C [Example 194, (4S)-7,8-dimethoxy-N,4-dimethyl-1-[4-(3-oxopiperazin-1-yl)phenyl]-4,5-dihydro-3H-2,3-benzodiazepine-3-carboxamide]
- IC50 (BRD4 (BD1)): 480 nM

Structure (SMILES): CNC(=O)N1N=C(c2ccc(N3C[C@@H](C)O[C@@H](C)C3)cc2)c2cc(OC)c(OC)cc2C[C@@H]1C [Example 195, (4S)-1-{4-[(2R,6S)-2,6-dimethylmorpholin-4-yl]phenyl}-7,8-dimethoxy-N,4-dimethyl-4,5-dihydro-3H-2,3-benzodiazepine-3-carboxamide]
- IC50 (BRD4 (BD1)): 690 nM

Structure (SMILES): CNC(=O)N1N=C(c2ccc(N3C[C@@H](C)N[C@@H](C)C3)cc2)c2cc(OC)c(OC)cc2C[C@@H]1C [Example 198, (4S)-1-{4-[(3R,5S)-3,5-dimethylpiperazin-1-yl]phenyl}-7,8-dimethoxy-N,4-dimethyl-4,5-dihydro-3H-2,3-benzodiazepine-3-carboxamide]
- IC50 (BRD4 (BD1)): 5300 nM

Structure (SMILES): CC[C@@H]1Cc2cc(OC)c(OC)cc2C(c2ccc(N3CCNCC3)cc2)=NN1C(=O)NC [Example 202.2, (4R)-4-ethyl-7,8-dimethoxy-N-methyl-1-[4-(piperazin-1-yl)phenyl]-4,5-dihydro-3H-2,3-benzodiazepine-3-carboxamide]
- IC50 (BRD4 (BD1)): 6540 nM

Structure (SMILES): CC[C@@H]1Cc2cc(OC)c(OC)cc2C(c2ccc(N3CCN(S(C)(=O)=O)CC3)cc2)=NN1C(=O)NC [Example 203.2, (4R)-4-ethyl-7,8-dimethoxy-N-methyl-1-{4-[4-(methylsulphonyl)piperazin-1-yl]phenyl}-4,5-dihydro-3H-2,3-benzodiazepine-3-carboxamide]
- IC50 (BRD4 (BD1)): 11200 nM

Structure (SMILES): CNC(=O)N1N=C(c2ccc(Cl)cc2)c2ccc(N3CCOC3=O)cc2C[C@@H]1C [Example 230.1, (4S)-1-(4-chlorophenyl)-N,4-dimethyl-7-(2-oxo-1,3-oxazolidin-3-yl)-4,5-dihydro-3H-2,3-benzodiazepine-3-carboxamide]
- IC50 (BRD4 (BD1)): 330 nM

Structure (SMILES): CNC(=O)N1N=C(c2ccc(-c3c(C)nn(C)c3C)cc2)c2cc(OC(F)(F)F)ccc2C[C@H]1C [Example 249.2, (4R)-N,4-dimethyl-8-(trifluoromethoxy)-1-[4-(1,3,5-trimethyl-1H-pyrazol-4-yl)phenyl]-4,5-dihydro-3H-2,3-benzodiazepine-3-carboxamide]
- IC50 (BRD4 (BD1)): 2340 nM

Structure (SMILES): CNC(=O)N1N=C(c2ccc(N3CCN(C)CC3)cc2)c2cc(OC(F)(F)F)ccc2C[C@H]1C [Example 250.1, (4R)-N,4-dimethyl-1-[4-(4-methyl-1-piperazinyl)phenyl]-8-(trifluoromethoxy)-4,5-dihydro-3H-2,3-benzodiazepine-3-carboxamide]
- IC50 (BRD4 (BD1)): 9890 nM

Structure (SMILES): CCNC(=O)N1N=C(c2ccc(N3CCN(C)CC3)cc2)c2cc(OC)c(OC)cc2C[C@@H]1C [Example 261.1, (4S)—N-Ethyl-7,8-dimethoxy-4-methyl-1-[4-(4-methylpiperazin-1-yl)phenyl]-4,5-dihydro-3H-2,3-benzodiazepine-3-carboxamide]
- IC50 (BRD4 (BD1)): 1220 nM
